Laboratory results published in a melting point compilation (Tetko et al.; mined from patent text by program, amines drawn as free bases though some values may be those of a salt).
Residues, ends and D or L forms follow the SMILES beside them. *: point of attachment. Tos = Cc1ccc(S(=O)(=O)*)cc1

Row | Compound | melting point
1 | Cc1ccc(S(F)(F)(F)(F)F)cc1[N+](=O)[O-] | 29 to 30 °C
2 | COC(=O)C(CC1CCCC1)c1ccc(I)cc1 (stereo not given) | 51 to 54 °C
3 | CC(C)c1cccc(C(C)C)c1N1C(=O)c2cccc3c(Cl)ccc(c23)C1=O | 289 °C
4 | CCCC(O)(CCC)c1ccc(Cl)c2nc3n(c12)CCCN3c1ccc(Cl)cc1Cl | 133 to 135 °C
5 | COc1ccc(S(=O)(=O)C(CC(=O)NO)Cc2ccc(OCc3ccccc3)cc2)cc1 (stereo not given) | 128 to 130 °C
6 | Cc1csc2c1c(-c1ccccc1Cl)nc(=O)n2C | 268 °C
7 | Cc1ccc2c(c1)SC1(CCOC1=O)C2=O (stereo not given) | 122 to 124 °C
8 | Cn1ncc(C(=O)N2CCC2)c1C(=O)Nc1ccn2nc(-c3ccccc3)nc2c1 | 243 to 245 °C
9 | COC(=O)c1ccc(OCCCN(C(N)=O)c2ccc(Cl)cc2)cc1 | 141 to 142 °C
10 | COCCCn1c(O)nc2ccc(C)cc21 | 118 to 120 °C
11 | CCCCCCc1ccc2c3ccc(CO)cc3n(C)c2c1 | 90 to 91 °C
12 | O=[N+]([O-])c1ccc(Sc2cc(Cl)cc(Cl)c2)c(S(=O)(=O)NC2CN3CCC2CC3)c1 (stereo not given) | 256 °C
13 | C=C(Cl)CC1(C)Cc2cc(O)c(Cl)c(Cl)c2C1=O (stereo not given) | 183 °C
14 | Cc1nc(-n2ccc(OCc3ccccc3)cc2=O)sc1C(=O)NCc1ccc(F)cc1 | 223 to 225 °C
15 | CC(=O)n1cc(Cl)c(-c2cc(Cl)cc(Cl)c2)n1 | 125 °C
16 | CC(=O)C1CCC2C3CCC4CC(O)CCC4(C)C3C(O)CC12C (stereo not given) | 152 to 154 °C
17 | Cc1cc(C)cc(P(=O)(O)O)c1 | 197 to 199 °C
18 | CCCCCc1ccc(-c2ccc(F)cc2)nc1 | 27 °C
19 | CCN1C(=O)C(C)(C)C(=O)N(C)c2cc(CN(CCn3ccc4sccc4c3=O)Cc3cccnc3C)ccc21 | 139 to 140 °C
20 | Cc1nc(-c2cnc3[nH]cc(C(=O)N[C@@H](C(=O)N4CC(C#N)C4)C(C)(C)C)c3n2)cn1-c1cccc(F)c1 | 171 to 176 °C
21 | Cc1ccc(S(=O)(=O)N2CCC[C@H]2C(=O)N[C@@H](CCC(N)=O)C(=O)O)cc1 (Tos-Pro-Gln-OH) | 45 to 55 °C
22 | OCc1cn(-c2ccc(SC(F)(F)F)c(Cl)c2)cn1 | 105 to 106 °C
23 | Cn1ncc(C(=O)N2CCC2)c1C(=O)Nc1ccn2nc(-c3cccnc3)nc2c1 | 253 to 254 °C
24 | Cc1nn(-c2cc(C(F)(F)F)ccc2Cl)cc1C(=O)N(CC(=O)O)c1ccc(OCC(C)(C)C)c(C#N)c1 | 189 to 190 °C
25 | CC1(C)COC(=O)N1c1nc(-c2ccc(C#N)cc2)cs1 | 183 to 185 °C

Row | Compound | melting point
26 | CC(=O)N(C(=O)N(C)C)c1nnc(C(F)(F)F)s1 | 61 to 63 °C
27 | O=C1CCC(c2ccc(-c3ccc(Cl)cc3)cc2)=NO1 | 190 to 192 °C
28 | CC(C)c1cc([N+](=O)[O-])c(O)c(C(C)C)c1NC(=O)CN1CCN(CCSc2nc3ccccc3o2)CC1 | 139 to 141 °C
29 | CNc1nn(C(=O)NC(C)(C)C)c(=O)n1N | 174 °C
30 | O=c1cc(N2CCCC(CO)C2)oc2c1ccc1ccccc12 (stereo not given) | 209 to 210 °C
31 | CCCCOc1c(CNC(=O)OC(C)(C)C)n(CC(C)C)c(=O)c2ccc(C(=O)N(C)OC)cc12 | 142 to 143 °C
32 | Nc1nc(N)c2c(ccc3c2ccn3-c2ccncc2)n1 | 328 to 330 °C
33 | COc1nc(OS(=O)(=O)C(F)(F)F)cc2cccnc12 | 99 to 101 °C
34 | COc1ccc(-n2nc(C(F)F)cc2-c2ccc(SC)cc2)cc1 | 100 to 101 °C
35 | CCOC(=O)COc1ccc(C=O)cc1 | 39 °C
36 | O=C1c2ccccc2C(=O)N1CCCOc1cccc2c(O)nccc12 | > 300 °C
37 | CC[C@@H]1NC(C)(C)CO[C@@]1(O)c1cccc(Cl)c1 | 160 to 161 °C
38 | CN(C)c1ccc(N2C(=O)C3Cc4[nH]cnc4CN3C2=S)cc1 (stereo not given) | 185 to 200 °C
39 | O=C(O)c1cc2cc(Cl)ccc2nc1N[C@@H](Cc1ccc(OCc2ccccc2)cc1)C(=O)O | 169 to 171 °C
40 | CC(C)CC(S)C(=O)NC(Cc1ccc(Br)nc1)C(=O)NC(Cc1ccc(-c2cccs2)nc1)C(=O)O (stereo not given) | 194 to 195 °C
41 | CN1CCC(OC2c3ccccc3CCn3cc(-c4ccc(N)cc4)nc32)CC1 (stereo not given) | 197 °C
42 | COCOc1ccc(CO)c2cccc(C)c12 | 91 to 93 °C
43 | CC(=O)N1CC2(CCN(C(=O)Nc3nnc(-c4ccccc4)s3)CC2)c2ccccc21 | 260 °C
44 | Cc1ccc(S(=O)(=O)OC[C@H]2CN(c3cccc(F)c3)C(=O)O2)cc1 | 114 to 115 °C
45 | Cc1cn(C(C)C(=O)N(C)C)nc1-c1ccc(Cl)c(Cl)c1 (stereo not given) | 109 to 110 °C
46 | O=C1OC(=O)C(c2ccccc2)=C1Cl | 82 to 83 °C
47 | Cc1cc(CCCOc2c(C)cc(-c3noc(C(Cl)(Cl)Cl)n3)cc2C)on1 | 77 to 77.5 °C
48 | C=CCNC(=O)Nc1nn(Cc2ccccc2)cc1C(=O)OCC | 77 to 78 °C
49 | CCC1(c2ccccc2)Cc2cc(O)c(Cl)c(Cl)c2C1=O (stereo not given) | 177 to 179 °C
50 | COc1ccc(Cn2cnc3c(-c4ccco4)nc(N(C)C)nc32)cc1 | 163 to 164 °C

Row | Compound | melting point
51 | CC(=O)Oc1cn(C(C)=O)c2ccc(F)c(Cl)c12 | 168 to 169 °C
52 | Cc1ccc2c(c1)CCOC2CCN1CCN(c2ccc(S(N)(=O)=O)cc2)CC1 (stereo not given) | 221 to 222 °C
53 | CC(=O)Nc1cc(C)c(N)c(C)c1[N+](=O)[O-] | 197 °C
54 | CCOC(=O)c1cc(=O)c2c(OCC(O)COc3ccc(C#N)c(OC)c3)cccc2o1 (stereo not given) | 143 to 145 °C
55 | CCOC(=O)c1c(Cl)nc2cc(F)c(C)cc2c1CCl | > 250 °C
56 | N=C1C=CC=CC1Cc1cccc2c1NCC2 (stereo not given) | 62 to 63 °C
57 | Cc1nn(-c2ccncc2)c2nc3cc(F)c(F)cc3c(Cl)c12 | 226 to 228 °C
58 | O=Cc1ccc(-c2cnc3cnc(-c4ccc(O)cc4)nc3c2)cc1 | > 268 °C
59 | OCCC1(c2ccc(Cl)c(Cl)c2)CCNC1 (stereo not given) | 91 to 94 °C
60 | CCn1cnc(Cl)c2nc(C3CC3)nc1-2 | 140 to 145 °C
61 | O=S(=O)(Oc1ccc(F)cc1)c1ccc(Oc2ccc(F)cc2)cc1 | 78 to 83 °C
62 | Cc1c(C(=O)c2cnn(C)c2OCc2ccccc2)ccc(S(C)(=O)=O)c1C1=NOCC1 | 152 to 153 °C
63 | COc1cc(C)nc(NC(=O)NS(=O)(=O)c2cccc3c2OS(=O)(=O)C(C)C3)n1 (stereo not given) | 215 to 218 °C
64 | O=C(O)c1ccc(NCCc2ccc(F)cc2)cc1 | 161 to 163 °C
65 | FC(F)(F)c1cccc(N=C2SCCN2C(=S)Nc2cccc(C(F)(F)F)c2)c1 | 116 to 117 °C
66 | O=c1[nH]c2cc(Cl)cc(Cl)c2c(=O)n1Cc1cccc2ccccc12 | 274 to 276 °C
67 | O=C(Nc1nccs1)c1c(C(F)(F)F)nc(-c2cccs2)c(-c2ccccc2)c1O | 136 °C
68 | Cc1nccn1Cc1ccccc1 | 51 to 53 °C
69 | OC1CSC(Oc2cccc(-c3cccnc3)n2)C(O)C1O (stereo not given) | 179 °C
70 | CC(C)NCC(O)COc1ccc(NC(=O)N(C)C)cc1 (stereo not given) | 138 to 139 °C
71 | O=C1N(Cc2ccc(Br)cn2)c2ccccc2C12COc1cc3c(cc12)OCCO3 (stereo not given) | 201 to 202 °C
72 | COC(=O)C(O)C(NC(=O)OCc1ccccc1)c1ccccc1 (stereo not given) | 120 to 121 °C
73 | O=C(Nc1cccc2c1C(=O)c1c-2n[nH]c1C1CCN(C(=O)N2CCNCC2)CC1)NN1CCOCC1 | 195 to 197 °C
74 | Cc1cc(-c2cc(C(F)(F)F)n3ncc(C(=O)Nc4cccc(S(=O)(=O)N5CCOCC5)c4)c3n2)ccc1C(F)(F)F | 272 °C
75 | COc1ccc(NCC(=O)N2CCC(Oc3ccc(Cl)cc3)CC2)cc1 | 127 to 130 °C

Row | Compound | melting point
76 | CC(C)(C)NC(=O)N1CCN(Cc2ccccc2)C[C@@H]1C(=O)NCCc1cncn1Cc1ccc(C#N)cc1 | 97.8 °C
77 | CN(Cc1cccc(Cl)c1)c1ccc(C(=O)O)nc1 | 138 to 140 °C
78 | C=C(CCC(=O)O)CC(N)C(=O)O (stereo not given) | 68 °C
79 | CC(O)CN1C(=O)N(CN2C(=O)N(CC(C)O)C(=O)C2(C)C)C(C)(C)C1=O (stereo not given) | 131 to 133 °C
80 | COC1N=C(c2ccccc2)c2cc(Cl)ccc2-n2nc(C(N)=O)nc21 (stereo not given) | 264 to 267 °C
81 | C[C@@H]1C(=O)C[C@H]2C[C@@H]1OO[C@@]2(C)/C=C\c1ccc(C(C)(C)C)cc1 | 101 °C
82 | CC(C=[N+]([O-])C(C)(C)C)c1ccccc1 (stereo not given) | 56 °C
83 | O=C(O)C1=C(C(F)(F)F)COc2ccc3ccccc3c21 | 246 to 249 °C
84 | OC(c1cc2ccccc2s1)C1CCN(CCc2ccccc2)CC1 (stereo not given) | 178 °C
85 | CCOC(=O)c1cnc(Cl)nc1NCc1ccc(OC)c(Cl)c1 | 114 to 115 °C
86 | NC(=O)N(O)CCNC(=O)c1ccc(Oc2ccccc2)cc1 | 185 to 186 °C
87 | COc1ccc(N(C)C(=O)CN(C(=O)CNC(=O)Nc2cccc(C)c2)c2ccccc2)cc1 | 202 °C
88 | Cc1ccc(S(=O)(=O)OCCc2nc(-c3ccc(Br)cc3)oc2C)cc1 | 136 °C
89 | CC(C)(C)c1ccc(C(=O)Nc2ccc(OCCO)cc2)cc1 | 136 to 142 °C
90 | O=C1C=C(NC(=O)C(=O)c2cn(Cc3ccc(Cl)cc3)c3ccccc23)CO1 | 253 to 255 °C
91 | O=C(CCO)N[C@H]1CC[C@H](CCN2CCN(c3nccc4c3CCO4)CC2)CC1 | 173 °C
92 | CS(=O)(=O)c1ccc(-c2cnn(-c3ccc(F)cc3)c(=O)c2N2CCCC2)cc1 | 192 to 195 °C
93 | O=C(c1ccccc1Cl)c1ccc(O)c(Cl)c1Cl | 74 to 77 °C
94 | CC1(C)C2CC1C(=O)CC2=O | 80 to 81 °C
95 | CCCc1ccccc1OCCCOc1cccc(OC(=CC(=O)O)C(=O)O)c1CC | 104 to 105 °C
96 | CC(C)(C)C(CS(=O)(=O)c1ccc(Oc2ccc(OC(F)(F)F)cc2)cc1)N(O)C=O (stereo not given) | 160 °C
97 | c1ccc(Nc2nc3ccccc3n3cc(-c4ccccc4)cc23)cc1 | 172 °C
98 | CCOc1ccc(C(C)=O)cc1S(=O)(=O)NC(=O)Nc1nc(OC)cc(OC)n1 | 192 to 193 °C
99 | CC(=O)N1C(=O)N(c2ccc(C#N)c(C(F)(F)F)c2)C(=O)C1(C)C | 129 to 130 °C
100 | CN(C)C(=O)c1ccc(I)cc1 | 103 to 106 °C
